Data as given in patent US20210205264A1, “USE OF DELTA-TOCOTRIENOL FOR TREATING CANCER” (H. LEE MOFFITT CANCER CENTER & RESEARCH INSTITUTE INC., priority 2018, published 2021).

Tests used:
[1] = system: MiaPaCa-2 cells stably expressing hCAS; test: Cell death in MiaPaCa-2 cells stably over-expressing hCAS; assay type: cell-based, human; conditions: hCAS over-expression, p<0.02
Excerpt: To determine whether hCAS over-expression can rescue from δ-T3 effects, MiaPaCa-2 cells stably expressing hCAS were generated by transfecting these cells with the hCAS gene-containing plasmid pCMV6-AC-GFP (Cat #RG211478, […]) and selecting the cells stably expressing hCAS under G418 pressure. MiaPaCa-2 cells expressing the same plasmid without the hCAS gene were also generated as empty vector control. […] The inability of over-expression to entirely overcome the effect of δ-T3 treatment further illustrates the robustness of a δ-T3 therapeutic approach.

[2] = system: MiaPaCa-2 cell; test: MiaPaCa-2 cell viability at increasing concentrations; assay type: cell-based, human
[3] = target: T1, hCAS (Homo sapiens, UniProt P55060); test: Competitive affinity-isolation of hCAS in MiaPaCa-2 cell lysate; assay type: binding; conditions: excess free compound
T1 construct: endogenous in cells; host or cells: MiaPaCa-2 human pancreatic cancer cells
T1 sequence (P55060 1-971): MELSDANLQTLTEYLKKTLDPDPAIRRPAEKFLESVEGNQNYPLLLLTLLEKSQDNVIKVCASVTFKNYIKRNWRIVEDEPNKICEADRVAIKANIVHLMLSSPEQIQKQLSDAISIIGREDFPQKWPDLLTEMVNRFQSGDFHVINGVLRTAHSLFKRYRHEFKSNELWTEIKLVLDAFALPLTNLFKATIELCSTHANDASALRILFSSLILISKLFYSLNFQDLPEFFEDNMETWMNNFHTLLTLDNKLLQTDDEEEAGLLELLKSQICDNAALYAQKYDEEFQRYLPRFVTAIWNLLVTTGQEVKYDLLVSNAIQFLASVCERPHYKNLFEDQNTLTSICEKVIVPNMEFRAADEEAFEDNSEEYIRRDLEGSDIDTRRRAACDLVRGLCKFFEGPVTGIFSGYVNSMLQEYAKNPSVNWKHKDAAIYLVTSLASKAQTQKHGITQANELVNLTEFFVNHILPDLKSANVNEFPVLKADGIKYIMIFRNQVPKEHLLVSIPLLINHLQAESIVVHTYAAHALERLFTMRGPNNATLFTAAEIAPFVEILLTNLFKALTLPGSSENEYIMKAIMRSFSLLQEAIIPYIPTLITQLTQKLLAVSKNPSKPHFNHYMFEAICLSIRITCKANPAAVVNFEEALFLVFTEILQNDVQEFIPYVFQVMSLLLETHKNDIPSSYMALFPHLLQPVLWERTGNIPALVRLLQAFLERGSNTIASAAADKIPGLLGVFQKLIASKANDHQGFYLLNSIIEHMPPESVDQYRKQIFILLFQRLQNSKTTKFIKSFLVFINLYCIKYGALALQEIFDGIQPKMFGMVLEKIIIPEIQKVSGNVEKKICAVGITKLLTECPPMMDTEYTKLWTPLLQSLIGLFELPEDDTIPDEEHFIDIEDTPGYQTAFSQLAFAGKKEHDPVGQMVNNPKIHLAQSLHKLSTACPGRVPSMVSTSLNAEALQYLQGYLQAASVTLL
Protocol: This experiment used a synthetic biotin-δ-tocotrienol conjugate (shown below to inhibit growth activity of cultured MiaPaca-2 human pancreatic cancer cells) to confirm affinity-isolation of hCAS. To confirm that δ-T3 binds to hCAS in intact cells, biotinylated δ-T3 (B-δ-T3) was prepared by chemically coupling the —OH group of δ-T3 to the —COOH of biotin using a PEG-iodoactamide linker (FIG. 18). […] Affinity-isolation of hCAS was inhibited in the presence of free δ-tocotrienol but not with free δ-tocopherol.

[4] = system: SW-620; test: Apoptosis induction in SW-620; assay type: cell-based, human
[5] = system: BID; test: Activation of BID (tBID) by Western blotting in CCSCs; assay type: cell-based, human; conditions: 24-hour treatment; aspirin 5 mM, d-T3 50 μM
Protocol: FIGS. 10A, 10B, 10C, and 10D show induction of apoptosis measured by flow cytometry (FIG. 10A) and confocal microscopy (FIG. 10B) in CCSCs after treatment with vehicle, aspirin, d-T3, and aspirin+d-T3. Effect of BID inhibitor on apoptosis in CCSCs after treatment with aspirin or d-T3 (FIG. 10C). Induction oft-BID in CCSCs after treatment with vehicle, aspirin, d-T3, and aspirin+d-T3 (FIG. 10D).
d-T3 can induce selective killing of CCSCs through the BH3 interacting-domain death agonist (BID). […] It should be noted that these in vitro results are consistent with the in vivo observation of the selective induction of apoptosis in APC mutant colon crypt cells in the ApcMin/+ mice but not in the normal intestinal cells of the AOM rat CRC model or NOD/SCID mice. […] Although the proapoptotic activity of d-T3 is a consistent observation of d-T3 anticancer activity in all of the published reports, the mechanism by which d-T3 induces apoptosis is poorly understood. Apoptotic death is regulated by the death receptor (extrinsic) and mitochondrial (intrinsic) pathways. […] To obtain preliminary information regarding the mechanisms by which d-T3 induces apoptosis in CCSCs, the activation of BID was measured after 24-hour treatment with vehicle, aspirin (5 mM), d-T3 (50 μM), and aspirin combined with d-T3 in CCSCs by Western blotting.

[6] = system: NCM-460; test: Apoptosis induction in NCM-460; assay type: cell-based
[7] = system: ApcMin/+ mice; test: Adenoma (intestinal polyp) formation in ApcMin/+ mice; assay type: in vivo
Excerpt: FIGS. 1A and 1B show the number of intestinal polyps (FIG. 1A) and H&E staining of polyps (FIG. 1B) in ApcMin/+ mice treated with vehicle (V), aspirin (Asp), d-T3, and combination of aspirin+d-T3. Black dots in FIG. 1B point out polyps in the intestine. Although substantial preclinical evidence exists regarding the preventive activity of d-T3 and g-T3 in various types of cancers, there is no report of d-T3 prevention of colon cancer despite evidence of activity in colon cell lines and xenograft models. […] Treatment with aspirin alone reduced adenoma formation by 38%, and treatment with d-T3 alone reduced adenoma formation by 44%, while treatment with the combination of aspirin and d-T3 reduced adenoma formation by 58%.

[8] = system: HPNE cells; test: Anchorage-independent growth / colony formation of HPNE cells over-expressing hCAS; assay type: cell-based; conditions: d-T3 concentration escalation

CC(C)=CCC/C(C)=C/CC/C(C)=C/CC[C@]1(C)CCc2cc(O)cc(C)c2O1 [d-T3, δ-tocotrienol]
cancer cell death versus the hCAS vehicle [1]: induces significant cancer cell death
cell killing at 100 μM concentration ([2]; 100 μM): killing almost all cells
effect on cell viability ([2]; increasing concentrations): most potent
affinity-isolation of hCAS / hCAS binding to biotin-T3 in presence of free competitor [3]: reduces hCAS binding
affinity-isolation of hCAS / hCAS binding to biotin-T3 in presence of free competitor ([3]; listed as δ-tocotrienol): inhibited
apoptosis [4]: significantly induced apoptosis
activation of tBID [5]: significantly activated
apoptosis [6]: no effect
reduced adenoma formation [7]: 44%
dose response on growth / colony formation [8]: potent dose-dependent effect
dose response on growth / colony formation ([8]; listed as δ-T3): robust dose-response
